In article PMC6466579, “Non-Mammalian Prdx6 Enzymes (Proteins with 1-Cys Prdx Mechanism) Display PLA2 Activity Similar to the Human Orthologue” (Antioxidants, 2019):

Columns and labels:
AfPrx1 = molecular target: T1, AfPrx1 (Aspergillus fumigatus, UniProt Q4WPA3); assay: PLA2 assay, [3H]DPPC liposomes, TLC and scintillation; format: biochemical
T1 construct: gene AFUA_4G08580; cytosolic 1-Cys Prdx
T1 sequence (Q4WPA3 1-213): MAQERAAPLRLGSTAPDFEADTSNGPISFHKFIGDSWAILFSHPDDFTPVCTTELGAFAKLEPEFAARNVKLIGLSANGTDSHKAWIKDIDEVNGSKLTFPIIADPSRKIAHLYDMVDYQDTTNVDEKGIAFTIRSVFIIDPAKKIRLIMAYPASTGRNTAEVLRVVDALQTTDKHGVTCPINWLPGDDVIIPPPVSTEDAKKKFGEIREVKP

AfPrxC = molecular target: T2, AfPrxC (Aspergillus fumigatus, UniProt B0Y9D7); assay: as above; format: biochemical
T2 construct: gene AFUB_080670
T2 sequence (B0Y9D7 47-267): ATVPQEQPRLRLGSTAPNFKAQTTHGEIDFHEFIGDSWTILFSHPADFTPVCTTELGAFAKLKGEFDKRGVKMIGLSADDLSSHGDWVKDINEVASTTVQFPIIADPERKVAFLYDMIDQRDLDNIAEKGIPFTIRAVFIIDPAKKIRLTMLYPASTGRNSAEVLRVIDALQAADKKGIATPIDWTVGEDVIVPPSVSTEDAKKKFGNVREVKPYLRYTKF

For `CCCCCCCCCCCCCCCCOC[C@H](COCC(F)(F)F)OP(=O)(O)OC` [MJ33, 1-hexadecyl-3-trifluoro-ethylglycero-sn-2-phosphomethanol], the inhibition at 200 µM (AfPrx1) was roughly 85% and the inhibition at 200 µM (AfPrxC) was roughly 85%.
